Consider 1 sequence from PMC5618426, “APETx4, a Novel Sea Anemone Toxin and a Modulator of the Cancer-Relevant Potassium Channel KV10.1” (Marine Drugs, 2017).

One data set addresses hKV10.1a (hEag1) (Homo sapiens, UniProt O95259). Briefly: two-electrode voltage clamp, KV10.1 in Xenopus laevis oocytes. Format: cell-based. As to the method: (§1) For the expression of the ion channels (rNaV1.4, hNaV1.5, mNaV1.6, hKV1.1, rKV1.3, hKV1.4, hKV1.5, hKV2.1, hKV10.1a and hKV11.1,) in Xenopus oocytes, the plasmids were linearized and subsequently transcribed using the T7 or SP6 mMESSAGE-mMACHINE transcription kit (Ambion®, Carlsbad, CA, USA).
(§2) Stage V-VI Xenopus laevis oocytes were isolated by partial ovariectomy. The animals were anesthetized by a 15 min submersion in 0.1% tricaine methane sulfonate (pH 7.0). Isolated oocytes were defolliculated with 2 mg/mL collagenase.
(§3) Defolliculated oocytes were injected with 50 nL of cRNA at a concentration of 1 ng/nL using a micro-injector (Drummond Scientific®, Broomall, PA, USA). The oocytes were incubated in a solution containing (in mM): NaCl, 96; KCl, 2; CaCl2, 1.8; MgCl2, 2 and HEPES, 5 (pH 7.4), supplemented with 50 mg/L gentamycin sulfate.
(§4) Two-electrode voltage-clamp recordings were performed at room temperature (18–22 °C) using an Geneclamp 500B Voltage and Patch Clamp Amplifier (Axon Instruments, Union City, CA, USA, controlled by a Axon Digidata 1550 Low-Noise Data Acquisition System (Axon Instruments). Whole cell currents from oocytes were recorded 1–4 days after injection. The normal bath solution (ND96) composition was (in mM): NaCl, 96; KCl, 2; CaCl2, 1.8; MgCl2, 2 and HEPES, 5 (pH 7.4). The high potassium solution (HK) composition was in mM): NaCl, 2; KCl, 96; CaCl2, 1.8; MgCl2, 2 and HEPES, 5 (pH 7.4). Voltage and current electrodes were filled with 3 M KCl. Resistances of both electrodes were kept between 0.5 and 1.5 MΩ. The elicited KV1.x end KV2.1 currents were filtered at 500 Hz and sampled at 2 kHz, KV10.1 currents were filtered at 1 kHz and sampled at 2 kHz, hERG currents were filtered at 1 kHz and sampled at 10 kHz and the sodium currents were filtered at 2 kHz and sampled at 20 kHz using a four-pole low-pass Bessel filter. Leak subtraction was performed using a -P/4 protocol.
KV10.1 currents were evoked by 2 s depolarizing pulses to 0 mV from a holding potential of −90 mV. KV11.1 (hERG) peak and tail currents were generated by a 2.5 s prepulse from −90 mV to 40 mV followed by a 2.5 s pulse to −120 mV. KV1.x channel currents were evoked by 500 ms depolarizations to 0 mV from a holding potential of −90 mV followed by a 500 ms pulse to −50 mV. KV2.1 currents were elicited by 500 ms pulses to +20 mV from a holding potential of −90 mV. NaV currents were evoked by a 100 ms depolarizations to 0 mV from the holding potential.
[…]. The curve was fitted with the logistic dose-response equation, y = A1−A2/1+ (IC50/[toxin])^nH + A2 where y represents the percentage of current inhibition, A1 the initial inhibition at the lowest toxin concentration (0%), A2 the final inhibition at the highest toxin concentration, IC50 the half maximal inhibitory toxin concentration and ^nH the Hill coefficient.
The voltage-dependent activation of the KV10.1 channels was investigated by 1000 ms activating steps from the holding potential −90 mV to 65 mV with 5 mV increments. The normalized current amplitudes were plotted against the corresponding pulse potentials and fitted with the Boltzmann equation, y = A1−A2/1+ e^(V−V1/2)/k + A2, where y represents the normalized current (I/Imax), A1 is the initial y-value(-∞) and A2 is the final y-value, Imax is the maximal current, V is the test voltage, V1/2 is the half-maximal voltage and k is the slope factor.
The voltage-dependent inactivation of KV10.1 channels was studied by 1.5 s prepulses from the holding potential ranging from −140 mV to 30 mV with 10 mV steps. These pulses were followed by a 0.5 s test pulse to 30 mV [17]. The normalized peak current amplitudes (I2/I2,max) measured during the test pulse and were plotted against the prepulses and fitted with the Boltzmann equation.
All electrophysiological data are presented as means ± S.E.M of n ≥ 3 independent experiments unless otherwise indicated. […]
On the technique in general: Two-electrode voltage clamp is typically applied to oocytes expressing channels or transporters.

In another data set the test system is hKV11.1 (hERG). The format is cell-based, human. The procedure:
as §1, §2, §3, §4
KV10.1 currents were evoked by 2 s depolarizing pulses to 0 mV from a holding potential of −90 mV. KV11.1 (hERG) peak and tail currents were generated by a 2.5 s prepulse from −90 mV to 40 mV followed by a 2.5 s pulse to −120 mV. […]
The peak and tail current of hERG were measured at different voltages by 1500 ms activating pulses from −60 mV to 55 mV in 5 mV steps from the holding potential of −90 mV, followed by a 750 ms step to −120 mV.
All electrophysiological data are presented as means ± S.E.M of n ≥ 3 independent experiments unless otherwise indicated. All data were acquired using pClamp Clampex 10.4 Molecular Devices, Downingtown, PA, USA) and analyzed using pClamp Clampfit 10.4 (Molecular Devices) and OriginPro 8 (Originlab, Northampton, MA, USA) or GraphPad Prism 6 software (GraphPad Software, Inc., San Diego, CA, USA). […]

The mark [1] stands for this setting: concentration-response curve, logistic fit.

Values joined by “and” are separate entries in the source; they are usually repeats but may differ in a detail not shown here. Identical values can stand only once. “Also recorded” adds a separate entry of the source. Like-named read-outs stand apart in the source and are kept apart here. Positions of bridges follow the written chain, without caps; N, C: chain ends. No end group written: not given here.

hKV10.1a (hEag1), sequence (O95259 other isoform, or with tags, fused parts or gaps): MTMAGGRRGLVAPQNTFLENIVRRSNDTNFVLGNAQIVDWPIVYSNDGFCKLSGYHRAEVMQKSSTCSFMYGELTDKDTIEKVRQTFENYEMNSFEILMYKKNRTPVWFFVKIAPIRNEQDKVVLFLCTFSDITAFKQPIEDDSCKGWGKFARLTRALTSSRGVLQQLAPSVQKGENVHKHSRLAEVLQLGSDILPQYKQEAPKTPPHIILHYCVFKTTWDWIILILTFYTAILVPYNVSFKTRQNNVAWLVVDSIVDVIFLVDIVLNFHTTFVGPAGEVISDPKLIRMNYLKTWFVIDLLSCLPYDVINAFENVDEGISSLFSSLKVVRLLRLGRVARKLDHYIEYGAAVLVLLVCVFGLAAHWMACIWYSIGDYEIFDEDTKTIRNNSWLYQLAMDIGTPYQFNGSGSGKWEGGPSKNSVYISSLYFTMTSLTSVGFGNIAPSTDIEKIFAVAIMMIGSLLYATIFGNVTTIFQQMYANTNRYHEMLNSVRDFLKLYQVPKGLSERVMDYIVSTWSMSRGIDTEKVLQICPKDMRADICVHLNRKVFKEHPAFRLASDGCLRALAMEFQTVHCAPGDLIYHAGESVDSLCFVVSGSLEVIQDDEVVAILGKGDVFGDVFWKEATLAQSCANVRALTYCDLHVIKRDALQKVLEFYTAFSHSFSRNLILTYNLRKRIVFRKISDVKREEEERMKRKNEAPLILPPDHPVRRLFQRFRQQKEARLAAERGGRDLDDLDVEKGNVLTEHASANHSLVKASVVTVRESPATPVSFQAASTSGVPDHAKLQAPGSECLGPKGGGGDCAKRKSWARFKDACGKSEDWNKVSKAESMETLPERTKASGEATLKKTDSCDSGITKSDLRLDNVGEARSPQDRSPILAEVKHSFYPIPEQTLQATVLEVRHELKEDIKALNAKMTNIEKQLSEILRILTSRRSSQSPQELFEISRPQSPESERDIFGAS

Turning to “GTTCYCGKTIGIYWFGKYSCPTNRGYTGSCPYFLGICCYPVD (disulfide 4-37, 6-30, 20-38) [APETx4]”, the “inhibition of the outward KV10.1 current” value at hKV10.1a (hEag1) (1.6 µM APETx4, 2 s pulse to 0 mV from −90 mV, ND96, pH 7.4, 18–22 °C, mean ± SEM, n = 3) was “highest activity on KV10.1”. Also, the inhibition at 1.6 µM came to 76 ± 2% at hKV10.1a (hEag1) (1.6 µM APETx4, 2 s pulse to 0 mV from −90 mV, ND96, pH 7.4, 18–22 °C, mean ± SEM, n = 3, read-out: inhibition of the outward KV10.1 current) and 79 ± 4% on hKV10.1a (hEag1) (1.6 μM APETx4, non-normalized inhibited current (1-It/Ic), read-out: inhibition of KV10.1 current, pulse −90 mV to 0 mV). Besides, on hKV10.1a (hEag1) (1.6 µM APETx4, HK solution (96 mM Ko), control 15.3 ± 1.4, n = 3, NS), the “slope factor of activation” value was 13.9 ± 0.8. Also, the “half-maximal voltage V1/2 of activation” value at hKV10.1a (hEag1) (1.6 µM APETx4, HK solution (96 mM Ko), control 41.3 ± 1.4 mV, n = 3) is listed as 50.9 ± 0.8 mV; on hKV10.1a (hEag1) (1.6 µM APETx4, ND96 (2 mM Ko), control 26.4 ± 0.9 mV, n = 3, p < 0.05) it was 44.1 ± 0.7 mV. The “shift of V1/2” value at hKV10.1a (hEag1) (1.6 µM APETx4, HK solution (96 mM Ko), n = 3, p < 0.05) worked out at 9.6 ± 1.7 mV. For the same sequence, the “shift of the activation curve towards more positive potentials” value at hKV10.1a (hEag1) (1.6 µM APETx4, ND96 (2 mM Ko), Boltzmann fit, n = 3, p < 0.05) is recorded as 17.7 ± 1.1 mV. The “slope factor k of activation” value on hKV10.1a (hEag1) (1.6 µM APETx4, ND96 (2 mM Ko), control 20.7 ± 0.6 mV, n = 3, p < 0.05) is 17.2 ± 0.3 mV. Further, at hKV10.1a (hEag1) (1.6 µM APETx4, control 653 ± 42 ms, n = 3, p < 0.05), the “rise time tr (10% to 90%)” value stood at 1246 ± 96 ms. Also, the “time constant τ of KV10.1 activation” value on hKV10.1a (hEag1) (1.6 µM APETx4, exponential fit, control 376 ± 60 ms, n = 3, p < 0.05) worked out at 1209 ± 229 ms. On hKV10.1a (hEag1) (1.6 μM APETx4, from the holding potential, non-normalized inhibited current (1-It/Ic)), the “reduction of KV10.1 current, pulse to 65 mV” value is listed as 29 ± 6%. The “current reduction upon first stimulation after closed-state incubation” value at hKV10.1a (hEag1) (1.6 µM APETx4, held at −90 mV for 10 min during addition, pulse to 0 mV, versus control current) is listed as 85.2 ± 1.9%. Also, the “time constant τ of onset of inhibition (normalized current decrease)” value on hKV10.1a (hEag1) (1.6 µM APETx4, one phase decay fit of I/Imax versus incubation time) is 97 ± 7 s. For the same sequence, the “voltage dependence of current inhibition” value at hKV10.1a (hEag1) (1.6 μM APETx4, reduced inhibition at more positive potentials, HK solution) is reported as “a similar effect was observed”. At hKV10.1a (hEag1) (7 concentrations, logistic fit, 2 s pulse to 0 mV from −90 mV, ND96, mean ± SEM, n ≥ 3, read-out: IC50 for KV10.1 current inhibition), the 50% inhibitory concentration (IC50) is 1010 ± 10 nM. For the same sequence, the “inward current at negative pulse potentials” value on hKV10.1a (hEag1) (HK solution (96 mM Ko), after toxin addition (1.6 µM)) is given as “no inward currents were observed”. In addition, the Hill coefficient on hKV10.1a (hEag1) (setting [1]) was 3.8 ± 0.3 and ~ 4. The same sequence yielded a maximal current inhibition on hKV10.1a (hEag1) (setting [1]) of 88.3 ± 0.9%. Besides, the “inactivation properties of KV10.1” value at hKV10.1a (hEag1) (two-pulse protocol, prepulse −140 to 30 mV, test pulse 30 mV, control or toxin condition) is “No apparent inactivation was observed”. In addition, the “hERG tail current at positive activation steps (≥0 mV)” value in the data set on hKV11.1 (hERG) (10 µM APETx4) was “tail current increased”. The “highest inhibition of hERG inward tail current” value with hKV11.1 (hERG) (10 µM APETx4, activating step to −20 mV) was determined as 21 ± 5%. Besides, the “shift of hERG activation curve towards more positive potentials” value in the data set with hKV11.1 (hERG) (10 µM APETx4, inward tail currents, Boltzmann fit, n = 3, p < 0.05) came out at 7.7 ± 0.4 mV. In addition, the “selectivity KV10.1 versus hERG” value with hKV11.1 (hERG) (low micromolar concentrations) is “discriminates between KV10.1 and hERG; also recorded: makes a clear distinction between KV10.1 and hERG”.

The term inhibition denotes the drop in the measured response relative to a control, in per cent. Broadly, the IC50 is the midpoint of a concentration-inhibition curve. A word on the Hill coefficient: it is a measure of the steepness of the concentration-response curve.
